Assay results taken from patent US4798807A, “Monoclonal antibodies and method for detecting dioxins and dibenzofurans” (priority 1986, dated 1989).
“Also recorded” adds a separate entry of the source.

Columns and labels:
[1] = molecular target: monoclonal antibody DD-1; assay: Competition ELISA with monoclonal antibody DD-1; format: binding, Biozzi mice; conditions: for I50 (inhibits antibody binding by 50%): competitor vs monoclonal antibody DD-1, plate coated with A-triCDD-RSA
Description: (§1) In this case the hybridomas were then screened for their ability to distinguish A-triCDD-BSA and A-triCDD-RSA from BSA and RSA. On the basis of this initial screen about 25 stable, antibody-producing colonies were isolated, subcloned, and frozen. The remaining clones were again screened for their abilities to recognize free TCDD in suspension. Experimentally, on the order of 10-100 nanograms of TCDD in hexane was dried, 0.5 ml of saline with BSA (1 mg/ml) was added and sonificated for 2 hrs. […] Identical procedures were followed for other dioxin isomers. A dilution series in microtiter plate wells was then made with the suspended TCDD, antibody adde, and the competition ELISA completed. Competition ELISA test procedures are discussed in detail in the following reference: Butt, W. R. (1984) "Practical Immunoassay: The State of the Art", Marcel Dekker, Inc., N.Y., N.Y.
(§2) A large part of the success that we have had in characterizing the binding specificities of our monoclonal antibodies comes from having developed a reliable competition ELISA protocol. Our preferred assay starts from stock solutions at 10 ppm in hexane of the various compounds listed in Table I. 10 μl of hexane solution is aliquoted into a small vial, evaporated under a stream of nitrogen gas, and 500 μl of a 1 mg/ml solution of BSA in phosphate buffered saline with 0.1% BSA is added. The vial is capped and placed in an ultrasonic cleaning waterbath for two hours. Two hours of sonification gives a more reproducible assay than does an hour. During the sonification, the hexane appears to evaporate completely, and one is left with an aqueous solution containing the dioxin. Microtiter plates coated with A-triCDD-RSA are blocked with a three percent solution of ovalbumin and a two-fold dilution series of sonificated dioxin-BSA is then made, covering the range 100 ppb-0.1 ppb. In each well of the plate 100 μl of the sonificated dioxin-BSA solution is mixed with n equal volume of antibody. The antibody partitions between the dioxin adsorbed to the BSA, and the A-tri-CDD-RSA on the plate.
(§3) A-TriCDD-RSA was adsorbed onto the surface of the wells of a microtiter plate. The various competitors listed were suspended in saline containing bovine serum albumin (BSA). These solutions were made by sonificating 10 μl of dioxin solution in hexane with 500 μl of saline-BSA. A dilution series of these dioxin-BSA solutions was then made covering the range of 100-0.2 ppb, and placed in the microtiter plate wells. An equal volume of DD-1 monoclonal antibody was then added, and allowed to react for 1 hour. Tne antibody binds either to the A-TriCDD-RSA on the plate or the dioxin in solution. After the hour, the solution phase is removed, the plate washed, and it is reincubated for an hour with peroxidase-conjugated goat-anti-mouse-immunoglobulins. A second washing is then done, and substrate (ABTS) added to the peroxidase. The enzyme-antibody conjugate and substrate function as a "developer", allowing the visualization of the DD-1 bound to the A-triCDD-RSA on the plate. Results are then expressed as a fraction of the response in wells with no competitor. […] At about 20 ppb of 2,3,7,8-TCDD the relative ELISA response is half of control, meaning that half the DD-1 antibody bound to the solution phase dioxin and half bound to the A-triCDD-RSA on the plate. For 1,2,3,7(8)-TCDD, 50% inhibition occurs at about 4 ppb, indicating the DD-1 prefers 1,2,3,7(8)-TCDD to 2,3,7,8-TCDD.
(§4) The FIGURE and Table II show representative competition data using several chlorinated compounds as competitors. From such data, one can determine the concentration required to inhibit antibody binding by 50% (I50). Table II lists the I50 for all compounds tested with the antibodies. In reporting these values, factors of two are about the limit of significance. […] The binding specificities of these antibodies are highly desirable, since they prefer the most toxic of the dioxin and dibenzofuran isomers.

[2] = molecular target: monoclonal antibody DD-3; assay: Competition ELISA with monoclonal antibody DD-3; format: binding, BALB/c mice; conditions: competitor vs monoclonal antibody DD-3; plate coated with A-triCDD-RSA
Description: as §1, §2, §3, §4

[3] = molecular target: monoclonal antibody DD-4; assay: Competition ELISA with monoclonal antibody DD-4; format: binding, BALB/c mice; conditions: competitor vs monoclonal antibody DD-4; plate coated with A-triCDD-RSA
Description: as §1, §2, §3, §4

[4] = molecular target: monoclonal antibody DD-5; assay: Competition ELISA with monoclonal antibody DD-5; format: binding, Biozzi mice; conditions: competitor vs monoclonal antibody DD-5; plate coated with A-triCDD-RSA
Description: as §1, §2, §3, §4

[5] = molecular target: monoclonal antibody DD-6; assay: Competition ELISA with monoclonal antibody DD-6; format: binding, Biozzi mice; conditions: competitor vs monoclonal antibody DD-6; plate coated with A-triCDD-RSA
Description: as §1, §2, §3, §4

[6] = tested on: monoclonal antibodies DD-1, DD-3, DD-4, DD-5 and DD-6; assay: Competition ELISA, statements for all antibodies together; format: binding, BALB/c and Biozzi mice; conditions: for reactivity of all antibodies with competitor: up to the highest concentration tested (100 ppb)
Description: as §1, §2, §3, §4

SMILES	I50 (inhibits antibody binding by 50%) [1]	I50 (inhibits antibody binding by 50%) [2]	I50 (inhibits antibody binding by 50%) [3]	I50 (inhibits antibody binding by 50%) [4]	I50 (inhibits antibody binding by 50%) [5]	reactivity of all antibodies with competitor [6]	affinity / recognition by all antibodies [6]	concentration at which 50% inhibition occurs (relative ELISA response half of control) ([1]; FIGURE, DD-1, competitor in saline-BSA, dilution series 100-0.2 ppb)	reaction of DD-1 with competitor ([1]; FIGURE, DD-1, 100-0.2 ppb)
Clc1ccc2oc3c(Cl)c(Cl)c(Cl)c(Cl)c3c2c1Cl [1,2,3,4,8,9-Hexa-CDBF]	> 200 ng	> 200 ng	> 200 ng	> 10 ng	> 150 ng	either do not react or react only marginally	–	–	–
Clc1cc(Cl)c2c(c1)Oc1cc(Cl)c(Cl)cc1O2 [1,3,7,8-TCDD]	0.2 ng	0.15 ng	> 2 ng	–	1 ng	–	highest affinity	–	–
Clc1cc2oc3cc(Cl)c(Cl)cc3c2cc1Cl [2,3,7,8-TCDBF]	0.65 ng	0.9 ng	5 ng	1 ng	0.5 ng	–	slightly less affinity	–	–
Clc1cc2c(cc1Cl)Oc1cc(Cl)c(Cl)cc1O2 [2,3,7,8-TCDD, 2,3,7,8-tetrachlorodibenzo-p-dioxin]	1 ng	3 ng	5 ng	0.5 ng	6 ng	–	slightly less affinity; also recorded: recognize	about 20 ppb	–
Clc1ccc(-c2ccc(Cl)c(Cl)c2)cc1Cl [3,3',4,4'-TCBP]	> 200 ng	> 200 ng	> 200 ng	> 10 ng	100 ng	–	–	–	–
Oc1cc(Cl)c(Cl)cc1O [4,5-Dichlorocatechol]	2000 ng	> 2000 ng	> 2000 ng	> 2000 ng	> 2000 ng	–	–	–	–
ClC1=C(Cl)C2(Cl)C3C4C=CC(C4)C3C1(Cl)C2(Cl)Cl (stereo not shown) [Aldrin]	> 2000 ng	> 2000 ng	> 2000 ng	> 2000 ng	> 2000 ng	–	–	–	–
ClC1C(Cl)C(Cl)C(Cl)C(Cl)C1Cl (stereo not shown) [BHC]	300 ng	> 2000 ng	> 2000 ng	> 2000 ng	> 2000 ng	–	–	–	–
ClC1=C(Cl)C2(Cl)C3C(Cl)C(Cl)CC3C1(Cl)C2(Cl)Cl (stereo not shown) [Chlordane]	> 2000 ng	> 2000 ng	> 2000 ng	> 2000 ng	> 2000 ng	–	–	–	–
Clc1ccccc1 [Chlorobenzene]	> 2000 ng	> 2000 ng	> 2000 ng	> 2000 ng	> 2000 ng	–	–	–	–
Clc1ccc(C(c2ccc(Cl)cc2)C(Cl)(Cl)Cl)cc1 [DDT]	> 2000 ng	> 2000 ng	> 2000 ng	> 2000 ng	> 2000 ng	–	–	–	–
O=S1OCC2C(CO1)C1(Cl)C(Cl)=C(Cl)C2(Cl)C1(Cl)Cl (stereo not shown) [Endosulfan]	> 2000 ng	> 2000 ng	> 2000 ng	> 2000 ng	> 2000 ng	–	–	–	–
ClC1=C(Cl)C2(Cl)C3C4CC(C5OC45)C3C1(Cl)C2(Cl)Cl (stereo not shown) [Endrin]	> 2000 ng	> 2000 ng	> 2000 ng	> 2000 ng	> 2000 ng	–	–	–	–
ClC1=C(Cl)C2(Cl)C3C(Cl)C=CC3C1(Cl)C2(Cl)Cl (stereo not shown) [Heptachlor]	> 2000 ng	> 2000 ng	> 2000 ng	> 2000 ng	> 2000 ng	–	–	–	–
O=C1C2(Cl)C3(Cl)C4(Cl)C(Cl)(Cl)C5(Cl)C3(Cl)C1(Cl)C5(Cl)C24Cl (stereo not shown) [Kepon]	> 2000 ng	> 2000 ng	> 2000 ng	> 2000 ng	> 2000 ng	–	–	–	–
Clc1c(Cl)c(Cl)c2c(oc3c(Cl)c(Cl)c(Cl)c(Cl)c32)c1Cl [Octachloro-DBF]	> 200 ng	> 200 ng	> 200 ng	> 10 ng	> 200 ng	either do not react or react only marginally	–	–	–
Clc1c(Cl)c(Cl)c2c(c1Cl)Oc1c(Cl)c(Cl)c(Cl)c(Cl)c1O2 [Octachloro-DD, octachlorodibenzodioxin]	> 200 ng	> 200 ng	> 200 ng	> 10 ng	> 200 ng	either do not react or react only marginally	–	–	does not react
Oc1c(Cl)c(Cl)c(Cl)c(Cl)c1Cl [Pentachlorophenol]	> 2000 ng	> 2000 ng	> 2000 ng	> 2000 ng	> 2000 ng	–	–	–	–
